Assay results from patent publication US8580794B2 (AbbVie Inc., priority 2009, dated 2013).

Experiments:
RS4;11 cells [1] = settings: Blood, 2008, Vol. 111, 2300-2309; cited from earlier work
GST-Bc1-2 = GST-Bc1-2 (Homo sapiens, UniProt P10415); experiment: Time Resolved-Fluorescence Resonance Energy Transfer (TR-FRET) Bcl-2 binding assay with F-Bak peptide probe; settings: GST-Bcl-2 1 nM, F-Bak probe 100 nM, Tb-anti-GST 1 nM; '<' = below limit of detection; read-out: TR-FRET Bcl-2 Binding Ki
RS4;11 cells [2] = experiment: RS4;11 Cell Viability Assay (CellTiter Glo); type: cell-based; settings: Homo sapiens, RS4-11, 48 h, 50,000 cells per well, 10% human serum;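 note: RS4,11 acute lymphoblastic leukemia cells, viability as percent of untreated control cells, EC50 for loss of viable cells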
Description: The acute lymphoblastic leukemia (ALL) cell line RS4;11 was used as the primary human cell line to assess the cellular activity of Bcl-2 selective agents in vitro and their efficacy in vivo.
Cell cytotoxicity EC50 values were assessed using CellTiter Glo (Promega) according to the manufacturer's recommendations. The EC50 values were determined as a percentage of viable cells following treatment compared to the untreated control cells.

GST-Bc1-2, sequence (P10415 whole entry): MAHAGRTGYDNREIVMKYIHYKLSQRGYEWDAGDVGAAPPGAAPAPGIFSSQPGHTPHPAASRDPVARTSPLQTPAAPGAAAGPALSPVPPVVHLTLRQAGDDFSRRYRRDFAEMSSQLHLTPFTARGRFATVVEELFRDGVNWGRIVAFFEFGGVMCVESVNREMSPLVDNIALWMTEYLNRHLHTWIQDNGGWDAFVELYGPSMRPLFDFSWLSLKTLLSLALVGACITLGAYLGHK

SMILES	sensitivity of RS4;11 cells to inhibitor (RS4;11 cells [1])	Ki (GST-Bc1-2) [nM]	EC50 (RS4;11 cells [2]) [nM]
CN(C)CC[C@H](CSc1ccccc1)Nc1ccc(S(=O)(=O)NC(=O)c2ccc(N3CCN(Cc4ccccc4-c4ccc(Cl)cc4)CC3)cc2)cc1[N+](=O)[O-] [ABT-737, N-(4-(4-((4′-chloro(1,1′-biphenyl)-2-yl)methyl)piperazin-1-yl)benzoyl)-4-(((1R)-3-(dimethylamino)-1-((phenylsulfanyl)methyl)propyl)amino)-3-nitrobenzenesulfonamide]	sensitive	–	–
COCC1CCN(C(=O)Nc2ccc(S(=O)(=O)NC(=O)c3ccc(N4CCN(CC5=C(c6ccc(Cl)cc6)CC(C)(C)CC5)CC4)cc3Oc3cnc4[nH]ccc4c3)cc2Cl)CC1 [Example 395, N-(2-chloro-4-{[4-(4-{[2-(4-chlorophenyl)-4,4-dimethylcyclohex-1-en-1-yl]methyl}piperazin-1-yl)-2-(1H-pyrrolo[2,3-b]pyridin-5-yloxy)benzoyl]sulfamoyl}phenyl)-4-(methoxymethyl)piperidine-1-carboxamide]	–	0.257	> 1000
CC1(C)CCC(CN2CCN(c3ccc(C(=O)NS(=O)(=O)c4ccc(NC(=O)N5CCC(N6CCOCC6)CC5)c(Cl)c4)c(Oc4cnc5[nH]ccc5c4)c3)CC2)=C(c2ccc(Cl)cc2)C1 [Example 398, N-(2-chloro-4-{[4-(4-{[2-(4-chlorophenyl)-4,4-dimethylcyclohex-1-en-1-yl]methyl}piperazin-1-yl)-2-(1H-pyrrolo[2,3-b]pyridin-5-yloxy)benzoyl]sulfamoyl}phenyl)-4-(morpholin-4-yl)piperidine-1-carboxamide]	–	0.149	548
COCC1(O)CCC(COc2ncc(S(=O)(=O)NC(=O)c3ccc(N4CCN(CC5=C(c6ccc(Cl)cc6)CC(C)(C)CC5)CC4)cc3Oc3cnc4[nH]ccc4c3)cc2Cl)CC1 (stereo not drawn) [Example 399, N-[(5-chloro-6-{[trans-4-hydroxy-4-(methoxymethyl)cyclohexyl]methoxy}pyridin-3-yl)sulfonyl]-4-(4-{[2-(4-chlorophenyl)-4,4-dimethylcyclohex-1-en-1-yl]methyl}piperazin-1-yl)-2-(1H-pyrrolo[2,3-b]pyridin-5-yloxy)benzamide]	–	< 0.01	127
CC1(C)CCC(CN2CCN(c3ccc(C(=O)NS(=O)(=O)c4cnc(OC[C@H]5CC[C@](O)(CO)CC5)c(Cl)c4)c(Oc4cnc5[nH]ccc5c4)c3)CC2)=C(c2ccc(Cl)cc2)C1 [Example 400, N-[(5-chloro-6-{[cis-4-hydroxy-4-(hydroxymethyl)cyclohexyl]methoxy}pyridin-3-yl)sulfonyl]-4-(4-{[2-(4-chlorophenyl)-4,4-dimethylcyclohex-1-en-1-yl]methyl}piperazin-1-yl)-2-(1H-pyrrolo[2,3-b]pyridin-5-yloxy)benzamide]	–	0.031	64
CC1(C)CCC(CN2CCN(c3ccc(C(=O)NS(=O)(=O)c4cnc(OC[C@H]5CC[C@@](O)(CO)CC5)c(Cl)c4)c(Oc4cnc5[nH]ccc5c4)c3)CC2)=C(c2ccc(Cl)cc2)C1 [Example 401, N-[(5-chloro-6-{[trans-4-hydroxy-4-(hydroxymethyl)cyclohexyl]methoxy}pyridin-3-yl)sulfonyl]-4-(4-{[2-(4-chlorophenyl)-4,4-dimethylcyclohex-1-en-1-yl]methyl}piperazin-1-yl)-2-(1H-pyrrolo[2,3-b]pyridin-5-yloxy)benzamide]	–	< 0.01	26.6
O=C(NS(=O)(=O)c1ccc(NCC2CCOCC2)c([N+](=O)[O-])c1)c1ccc(N2CCN(CC3=C(c4ccc(Cl)cc4)CCCC3)CC2)cc1Oc1cnc2[nH]ccc2c1 [Example 403, 4-(4-{[2-(4-chlorophenyl)cyclohex-1-en-1-yl]methyl}piperazin-1-yl)-N-({3-nitro-4-[(tetrahydro-2H-pyran-4-ylmethyl)amino]phenyl}sulfonyl)-2-(1H-pyrrolo[2,3-b]pyridin-5-yloxy)benzamide]	–	< 0.01	34
CC1(C(=O)O)CCC(c2ccc(Cl)cc2)=C(CN2CCN(c3ccc(C(=O)NS(=O)(=O)c4ccc(NCC5CCOCC5)c([N+](=O)[O-])c4)c(Oc4cnc5[nH]ccc5c4)c3)CC2)C1 (stereo not drawn) [Example 404, 4-(4-chlorophenyl)-1-methyl-3-[(4-{4-[({3-nitro-4-[(tetrahydro-2H-pyran-4-ylmethyl)amino]phenyl}sulfonyl)carbamoyl]-3-(1H-pyrrolo[2,3-b]pyridin-5-yloxy)phenyl}piperazin-1-yl)methyl]cyclohex-3-ene-1-carboxylic acid]	–	< 0.01	> 1000
